We go through 29 compounds from patent publication US20100099703A1, “PHENYLAMINO-SUBSTITUTED PIPERIDINE COMPOUNDS, THEIR PREPARATION AND USE AS MEDICAMENTS” (priority 2006, published 2010).

The assay has as its target T1, rat Y5 receptor (Rattus norvegicus, UniProt Q63634).
T1 construct: expressed in transfected cells; host or cells: C6 cells (membrane preparation)
T1 sequence (Q63634 1-445): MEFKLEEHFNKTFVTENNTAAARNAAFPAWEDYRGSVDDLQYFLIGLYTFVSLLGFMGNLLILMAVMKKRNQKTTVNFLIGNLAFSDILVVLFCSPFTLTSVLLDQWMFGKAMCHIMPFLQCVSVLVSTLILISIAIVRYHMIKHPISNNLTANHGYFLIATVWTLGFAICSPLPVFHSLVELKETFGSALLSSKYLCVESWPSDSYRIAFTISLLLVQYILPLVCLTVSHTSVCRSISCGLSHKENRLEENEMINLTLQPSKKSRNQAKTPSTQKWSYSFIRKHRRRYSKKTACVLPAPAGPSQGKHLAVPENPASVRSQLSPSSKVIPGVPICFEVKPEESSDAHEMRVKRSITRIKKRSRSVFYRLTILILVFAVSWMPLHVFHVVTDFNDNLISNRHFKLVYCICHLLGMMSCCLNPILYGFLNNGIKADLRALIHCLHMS
The assay is described as follows: Neuropeptide Y5 receptor binding ([125I]-PYY displacement, membranes of transfected C6 cells). To be noted: radioligand [125I]-PYY 100 pM, C6 cells transfected with rat Y5 receptor; for inhibition at 1 µM: compound at 10^−6 M. The protocol:
Neuropeptide Y5 Receptor Binding Studies:
The methods used for membrane preparation and binding are similar to those described by Y. Hu, B. T. Bloomquist et al. in Y. Hu, B. T. Bloomquist et al., The Journal of Biological Chemistry, 1996, 271, 26315-26319 with modifications. Said literature description is herewith incorporated by reference and forms part of the disclosure. Cells C6 were transfected with the rat Y5 receptor. The cells were grown under standard culture conditions in 150 cm^2 dishes and they were harvested using a rubber scraper and 10 ml PBS. The cells from five dishes were collected and centrifuged 2.500 g for 5 min (4° C.). The pellet was washed by resuspending in 3 ml buffer (Tris-HCl 10 mM, pH 7.4), homogenized using a Potter S homogenizer, 10 strokes at 600 rpm and centrifuged 48.000 g for 20 min (4° C.). The pellet was resuspended in 8 ml membrane buffer (Tris-HCl 25 mM, NaCl 120 mM, KCl 5 mM, KH2PO4 1.2 mM, CaCl2 2.5 mM, MgSO4 1.2 mM, BSA 0.15 mg/ml, Bacitracine 0.5 mg/ml, pH 7.4) and rehomogenized using the Potter S, 10 strokes at 600 rpm. The protein concentration in the incubation was 40 μg/ml. The radioligand was [^125I]-PYY (100 pM) in a total incubation volume of 200 μl. Following incubation at 25° C. for 2 h, the reaction was stopped by addition of 5 ml ice-cold buffer (Tris-HCl 25 mM, NaCl 120 mM, KCl 5 mM, KH2PO4 1.2 mM, CaCl2 2.5 mM, MgSO4 1.2 mM, pH 7.4) and rapid filtration in a Harvester Brandell Cell using filters (Schleicher & Schuell GF 3362) pretreated for two hours with 0.5% polyethyleneimine. Filters were washed one time with 5 ml ice-cold buffer. The filters were placed into plastic scintilation vials and 5 ml scintilation cocktail Ecoscint H were added. The quantity of radioactivity present was determined in a Wallac Winspectral 1414 counter. Non specific binding was determined in the presence of 1 μM de pNPY. All binding assays were done in triplicate.

Regarding `O=C(CN1CCC(Nc2ccccc2O)CC1)Nc1cnc2ccccc2c1` [Example 1, 2-[4-(2-Hydroxy-phenylamino)-piperidin-1-yl]-N-quinolin-3-yl-acetamide], the inhibition at 1 µM was 5.6%. For the compound `O=C(CN1CCC(Nc2ccccc2O)CC1)Nc1ccc(C(=O)c2ccccc2)cc1` [Example 2, N-(4-Benzoyl-phenyl)-2-[4-(2-hydroxy-phenylamino)-piperidin-1-yl]-acetamide], the inhibition at 1 µM was 62.5%. Consider `CCn1c2ccccc2c2cc(NC(=O)CN3CCC(Nc4ccccc4O)CC3)ccc21` [Example 3, N-(9-Ethyl-9H-carbazol-3-yl)-2-[4-(2-hydroxy-phenylamino)-piperidin-1-yl]-acetamide], for which the inhibition at 1 µM came to 97.8% and the IC50 was 66.1 nM.

For the compound `O=C(CN1CCC(Nc2ccccc2O)CC1)Nc1ccc(C2CCCCC2)cc1` [Example 4, N-(4-Cyclohexyl-phenyl)-2-[4-(2-hydroxy-phenylamino)-piperidin-1-yl]-acetamide], the inhibition at 1 µM came out at 35.3%. Still for that read-out and setting: in the case of `O=C(CN1CCC(Nc2ccccc2O)CC1)Nc1ccc2ncccc2c1` [Example 5, 2-[4-(2-Hydroxy-phenylamino)-piperidin-1-yl]-N-quinolin-6-yl-acetamide] it was 22.7%. Regarding `O=C(CN1CCC(Nc2ccccc2O)CC1)Nc1ccc2c(c1)-c1ccccc1C2=O` [Example 6, 2-[4-(2-Hydroxy-phenylamino)-piperidin-1-yl]-N-(9-oxo-9H-fluoren-3-yl)-acetamide], the inhibition at 1 µM was 95% and the IC50 amounted to 57.5 nM.

Take `CC(=O)c1ccc(NC(=O)CN2CCC(Nc3ccccc3O)CC2)cc1` [Example 7, N-(4-Acetyl-phenyl)-2-[4-(2-hydroxy-phenylamino)-piperidin-1-yl]-acetamide]: the inhibition at 1 µM was 14%. Same read-out and setting: in the case of `O=C(CN1CCC(Nc2ccccc2O)CC1)Nc1ccc2c(c1)CCCC2=O` [Example 9, 2-[4-(2-Hydroxy-phenylamino)-piperidin-1-yl]-N-(5-oxo-5,6,7,8-tetrahydro-naphthalen-2-yl)-acetamide] it was 44.7%.

Regarding `CCn1c2ccccc2c2cc(NC(=O)CN3CCC(Nc4cccc(O)c4)CC3)ccc21` [Example 10, N-(9-Ethyl-9H-carbazol-3-yl)-2-[4-(3-hydroxy-phenylamino)-piperidin-1-yl]-acetamide], the inhibition at 1 µM was 105% and the 50% inhibitory concentration (IC50) was found to be 34.6 nM. Consider `O=C(CN1CCC(Nc2cccc(O)c2)CC1)Nc1ccc2c(c1)-c1ccccc1C2=O` [Example 11, 2-[4-(3-Hydroxy-phenylamino)-piperidin-1-yl]-N-(9-oxo-9H-fluoren-3-yl)-acetamide], for which the inhibition at 1 µM stood at 76.9% and the half-inhibitory concentration (IC50) was determined as 35.6 nM. As for `CCN(CCO)c1ccc(NC(=O)CN2CCC(Nc3cccc(O)c3)CC2)cc1` [Example 12, N-{4-[Ethyl-(2-hydroxy-ethyl)-amino]-phenyl}-2-[4-(3-hydroxy-phenylamino)-piperidin-1-yl]-acetamide], the inhibition at 1 µM worked out at 51.2%. Still for that read-out and setting: in the case of `O=C(CN1CCC(Nc2cccc(O)c2)CC1)Nc1ccc2ncccc2c1` [Example 13, 2-[4-(3-Hydroxy-phenylamino)-piperidin-1-yl]-N-quinolin-6-yl-acetamide] it was 27.8%. Same read-out and setting: in the case of `CCn1c2ccccc2c2cc(NC(=O)CN3CCC(Nc4ccc(O)cc4)CC3)ccc21` [Example 15, N-(9-Ethyl-9H-carbazol-3-yl)-2-[4-(4-hydroxy-phenylamino)-piperidin-1-yl]-acetamide] it was 74.6%. With `O=C(CN1CCC(Nc2ccc(O)cc2)CC1)Nc1ccc2c(c1)-c1ccccc1C2=O` [Example 16, 2-[4-(4-Hydroxy-phenylamino)-piperidin-1-yl]-N-(9-oxo-9H-fluoren-3-yl)-acetamide], the inhibition at 1 µM was determined as 101%. For `CCn1c2ccccc2c2cc(NC(=O)CN3CCC(Nc4ccccc4OC)CC3)ccc21` [Example 17, N-(9-Ethyl-9H-carbazol-3-yl)-2-[4-(2-methoxy-phenylamino)-piperidin-1-yl]-acetamide], the inhibition at 1 µM was 101% and the IC50 came out at 46.9 nM. Turning to `COc1ccccc1NC1CCN(CC(=O)Nc2ccc3c(c2)-c2ccccc2C3=O)CC1` [Example 18, 2-[4-(2-Methoxy-phenylamino)-piperidin-1-yl]-N-(9-oxo-9H-fluoren-3-yl)-acetamide], the inhibition at 1 µM turned out to be 96.1%. Still for that read-out and setting: in the case of `COc1ccccc1NC1CCN(CC(=O)Nc2cnc3ccccc3c2)CC1` [Example 21, 2-[4-(2-Methoxy-phenylamino)-piperidin-1-yl]-N-quinolin-3-yl-acetamide] it was 19.6%; in that of `COc1ccccc1NC1CCN(CC(=O)Nc2ccc(C(=O)c3ccccc3)cc2)CC1` [Example 22, N-(4-Benzoyl-phenyl)-2-[4-(2-methoxy-phenylamino)-piperidin-1-yl]-acetamide], 55.7%. Still for that read-out and setting: in the case of `CCn1c2ccccc2c2cc(NC(=O)CN3CCC(Nc4cccc(OC)c4)CC3)ccc21` [Example 23, N-(9-Ethyl-9H-carbazol-3-yl)-2-[4-(3-methoxy-phenylamino)-piperidin-1-yl]-acetamide] it was 96.9%; in that of `COc1cccc(NC2CCN(CC(=O)Nc3ccc4c(c3)-c3ccccc3C4=O)CC2)c1` [Example 24, 2-[4-(3-Methoxy-phenylamino)-piperidin-1-yl]-N-(9-oxo-9H-fluoren-3-yl)-acetamide], 97.5%; in that of `CCN(CCO)c1ccc(NC(=O)CN2CCC(Nc3cccc(OC)c3)CC2)cc1` [Example 25, N-{4-[Ethyl-(2-hydroxy-ethyl)-amino]-phenyl}-2-[4-(3-methoxy-phenylamino)-piperidin-1-yl]-acetamide], 51.6%. On the same count and under the same terms, in the case of `COc1cccc(NC2CCN(CC(=O)Nc3ccc(C(=O)c4ccccc4)cc3)CC2)c1` [Example 26, N-(4-Benzoyl-phenyl)-2-[4-(3-methoxy-phenylamino)-piperidin-1-yl]-acetamide] it was 37%; in that of `CCn1c2ccccc2c2cc(NC(=O)CN3CCC(Nc4ccc(OC)cc4)CC3)ccc21` [Example 27, N-(9-Ethyl-9H-carbazol-3-yl)-2-[4-(4-methoxy-phenylamino)-piperidin-1-yl]-acetamide], 91.1%; in that of `COc1ccc(NC2CCN(CC(=O)Nc3ccc4c(c3)-c3ccccc3C4=O)CC2)cc1` [Example 28, 2-[4-(4-Methoxy-phenylamino)-piperidin-1-yl]-N-(9-oxo-9H-fluoren-3-yl)-acetamide], 97.3%. Consider `CCN(CCO)c1ccc(NC(=O)CN2CCC(Nc3ccc(OC)cc3)CC2)cc1` [Example 29, N-{4-[Ethyl-(2-hydroxy-ethyl)-amino]-phenyl}-2-[4-(4-methoxy-phenylamino)-piperidin-1-yl]-acetamide], for which the inhibition at 1 µM is 69%. As to `CCn1c2ccccc2c2cc(NC(=O)CN3CCC(Nc4ccccc4)CC3)ccc21` [Example 32, N-(9-Ethyl-9H-carbazol-3-yl)-2-(4-phenylamino-piperidin-1-yl)-acetamide], the inhibition at 1 µM was determined as 80.7% and the concentration for half-maximal inhibition (IC50) was found to be 23.7 nM.

For `O=C(CN1CCC(Nc2ccccc2)CC1)Nc1ccc2c(c1)-c1ccccc1C2=O` [Example 33, N-(9-Oxo-9H-fluoren-3-yl)-2-(4-phenylamino-piperidin-1-yl)-acetamide], the inhibition at 1 µM came out at 108% and the concentration for half-maximal inhibition (IC50) was 102 nM.

Consider `CCN(CCO)c1ccc(NC(=O)CN2CCC(Nc3ccccc3)CC2)cc1` [Example 34, N-{4-[Ethyl-(2-hydroxy-ethyl)-amino]-phenyl}-2-(4-phenylamino-piperidin-1-yl)-acetamide], for which the inhibition at 1 µM worked out at 72.6%. On the same count and under the same terms, in the case of `O=C(CN1CCC(Nc2ccccc2)CC1)Nc1ccc2c(c1)CCCC2=O` [Example 35, N-(5-Oxo-5,6,7,8-tetrahydro-naphthalen-2-yl)-2-(4-phenylamino-piperidin-1-yl)-acetamide] it was 67.1%.
